Assay type in all cases: cell-based
Series [1] concerns HEK293 cells transiently transfected with pCMV14-hSLC5A12-3×FLAG (SMCT2). As to the kind of experiment: D-serine toxicity test in transient expression system, SMCT2. Particulars: SMCT2-expressing HEK293 cells; 2 days; XTT. The protocol:
(§1) 2-4. Cell survival measurement A D-serine toxicity test was carried out using HEK293 in a transient expression system. The cells were seeded in a 96-well plate at 10,000 cells/well, and transfected with […] DNA (pCMV14 as Mock, pCMV14-hSLC5A8-3×FLAG as SMCT1 and pCMV14-hSLC5A12-3×FLAG as SMCT2). At 24 hours after transfection they were treated with D-serine and further incubated for 2 days. The proliferated cell count was determined by XTT measurement. The XTT solution comprised 1 mg/ml of XTT (2,3-Bis-(2-Methoxy-4-nitro-5-sulfophenyl)-2H-tetrazolium-5-carboxanilide, disodium salt: Biotium, CA, USA) mixed with 7.5 μg/ml of Phenazine methosulfate (Nacalai Tesque, Inc.), and was added to the cultured cells. The incubation reaction was carried out for 4 hours at 37° C., 5% CO2. The absorbance at 450 nm was then measured with a microplate reader.
For orientation: Formazan colour is commonly taken as a measure of viable cells.

Series [2] deals with Flp-In TREx293 cells. As to the kind of experiment: Cell proliferation by XTT assay in Flp-In TREx293 cells treated with L- or D-serine. On the procedure: as §1
(§2) A toxicity test for stable cells was carried out using an FlpIn293TR-stable cell line. The cells were seeded in a poly-D-lysine-coated 96-well plate at 6.5×10^3 cells/well (Mock) and 8×10^3 cells/well (hSLC5A8 and hSLC5A12 cells), while in antibiotic-free DMEM+dialyzed FBS medium. After 24 hours, they were treated with L- or D-serine at different concentrations and 1 mg/L of doxycycline hyclate was added to induce recombination gene expression. For the ASCT2 knockdown experiment, the seeded cells were transfected after 12 hours with ASCT2 siRNA at 2 pmol/well, using Lipofectamine 3000. The effect of ibuprofen was analyzed by simultaneous addition with D-serine treatment. The cells were cultured for 2 days to 80% confluence. The proliferated cell count was determined by XTT measurement in the same manner as described above.

In series [3] the test system is HEK293 cells transiently transfected with a cDNA clone of a transporter candidate. The series is described as follows: Cytotoxicity test (XTT) for screening of D-serine transporter candidates. The protocol:
as §1
A total of 19 D-serine transporter candidates were selected from the proteome results. A cytotoxicity test for screening of D-serine transporter was developed based on the idea that intracellular D-serine accumulated via D-serine transporter function induces cytotoxicity. HEK293 cells were transiently transfected with a cDNA clone and the cells were treated with 15 mM or 25 mM D-serine to observe the initial stage and stationary stage of the toxicity effect. […]

The test system of series [4] is FlpIn293TR-hSLC5A12-3×FLAG (SMCT2)-stable cell line. As to the kind of experiment: Toxicity test (XTT) in SMCT2-stable cell line. As to conditions: FlpIn293TR-Mock or SMCT2-stable cell line; SMCT2 cells compared to Mock cells. The protocol:
as §2

Series [5] concerns FlpIn293TR-hSLC5A8-3×FLAG (SMCT1)-stable cell line. As to the kind of experiment: Toxicity test (XTT) in SMCT1-stable cell line. As to conditions: SMCT1 cells compared to Mock cells. The protocol: as §2
Series [6] has as its system HEK293 cells transiently transfected with pCMV14-hSLC5A8-3×FLAG (SMCT1). The series is described as follows: D-serine toxicity test in transient expression system, SMCT1. Particulars: SMCT1-expressing HEK293 cells; 2 days; XTT. On the procedure:
as §1

Series [7] concerns Flp-In TREx 293 cell line. As to the kind of experiment: D-[3H]serine uptake in Flp-In TREx 293 cell line in the presence of inhibitors. As to conditions: 10 minutes. On the procedure:
(§3) The cell lines HEK293 and Flp-In TREx 293 were cultured at 37° C. in a 5% CO2 environment, using Dulbecco's Modified Eagle Medium (DMEM) containing 10% fetal bovine serum (FBS), 100 units/ml Penicillin G and 100 μg/ml streptomycin (P/S). The cells were seeded in a Poly-D-lysine coated 24-well plate at 6×10^4 cells/well. After culturing for 3 days in DMEM Medium containing 10% FBS and P/S, the cell were used for transport activity measurement. Before transport activity measurement, the cells were washed with transport activity measurement buffer (PBS+1 g/L D-glucose) prewarmed to 37° C. and incubated for 10 minutes at 37° C. in 500 μL of buffer. The transport activity measurement was initiated by addition of D-[^3H]serine-containing transport activity buffer at the indicated concentration. The reaction product produced after addition was incubated at 37° C. for the indicated time. The reaction was suspended by removing the D-[^3H]serine-containing transport activity buffer, and the product was washed 3 times with thoroughly cooled transport activity buffer. The cells were dissolved with 500 μL of 0.1 N NaOH and incubated for at least one hour. Protein concentration of the cell lysate was measured by BCA protein assay. The lysate was mixed with 1 mL of Emulsifier Safe (PerkinElmer, MA, USA) and the radioactivity of the lysate was measured with a β-scintillation counter (LSC-8000, Hitachi). In transport activity measurement for Na^+, HBSS (+Na^+: 125 mM NaCl, −Na^+: choline chloride, 4.8 mM KCl, 1.2 mM MgSO4, 1.2 mM KH2PO4, 1.3 mM CaCl2), 5.6 mM D-glucose and 25 mM HEPES was used instead of PBS. For the inhibition experiment, a non-radioactive labeled compound was included as the uptake substrate as shown in the drawing.

Series [8] concerns the target T1, ASCT2 (Homo sapiens, UniProt Q15758).
T1 construct: expressed in transfected cells; host or cells: HEK293 cells
T1 sequence (Q15758 1-541): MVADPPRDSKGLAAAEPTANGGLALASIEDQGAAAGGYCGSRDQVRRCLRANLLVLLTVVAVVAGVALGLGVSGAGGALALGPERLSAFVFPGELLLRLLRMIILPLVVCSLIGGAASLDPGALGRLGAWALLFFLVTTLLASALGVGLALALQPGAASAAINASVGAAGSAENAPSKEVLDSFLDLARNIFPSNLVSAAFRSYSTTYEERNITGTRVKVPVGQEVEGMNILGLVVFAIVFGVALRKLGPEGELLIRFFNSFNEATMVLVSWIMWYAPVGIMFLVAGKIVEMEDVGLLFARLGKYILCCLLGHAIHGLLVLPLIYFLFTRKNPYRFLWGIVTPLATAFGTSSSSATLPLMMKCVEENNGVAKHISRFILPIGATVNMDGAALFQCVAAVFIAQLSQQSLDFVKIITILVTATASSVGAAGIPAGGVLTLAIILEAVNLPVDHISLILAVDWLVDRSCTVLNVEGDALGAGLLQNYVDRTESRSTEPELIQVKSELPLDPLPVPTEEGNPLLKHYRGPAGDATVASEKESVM
As to the kind of experiment: [3H]D-serine transport in HEK293 cells transfected with ASCT2.
Method: The cell lines HEK293 and Flp-In TREx 293 were cultured at 37° C. in a 5% CO2 environment, using Dulbecco's Modified Eagle Medium (DMEM) containing 10% fetal bovine serum (FBS), 100 units/ml Penicillin G and 100 μg/ml streptomycin (P/S). The cells were seeded in a Poly-D-lysine coated 24-well plate at 6×10^4 cells/well. After culturing for 3 days in DMEM Medium containing 10% FBS and P/S, the cell were used for transport activity measurement. Before transport activity measurement, the cells were washed with transport activity measurement buffer (PBS+1 g/L D-glucose) prewarmed to 37° C. and incubated for 10 minutes at 37° C. in 500 μL of buffer. The transport activity measurement was initiated by addition of D-[^3H]serine-containing transport activity buffer at the indicated concentration. The reaction product produced after addition was incubated at 37° C. for the indicated time. The reaction was suspended by removing the D-[^3H]serine-containing transport activity buffer, and the product was washed 3 times with thoroughly cooled transport activity buffer. […] Protein concentration of the cell lysate was measured by BCA protein assay. The lysate was mixed with 1 mL of Emulsifier Safe (PerkinElmer, MA, USA) and the radioactivity of the lysate was measured with a β-scintillation counter (LSC-8000, Hitachi). […]

Series [9] deals with HEK293 cells. The series is described as follows: [3H]D-serine transport in HEK293 cells. Particulars: endogenous ASCT2. The protocol:
as §3

The test system of series [10] is ASCT2-knockout HAP1 cells. The series is described as follows: D-serine transport in ASCT2-knockout HAP1 cells. From the text:
In order to establish positive candidates for D-serine transporter it was attempted to elucidate the transport function in a cell model. ASCT2 is expressed in several cell lines, constituting a strong background of D-serine accumulation and interfering with identification of novel D-serine transporters. HAP1 cells (Horizon Discovery), which are an essentially haploid cell line, can be advantageously used as a cell model for this purpose. Genetic modification is facilitated since almost all of the chromosomes are single copies, while their transcriptome analysis methods have been established and several gene knockout cell lines can be used. ASCT2-knockout HAP1 cells were therefore obtained and used as a model for D-serine screening.
The ASCT2-knockout HAP1 cells had weaker D-serine uptake compared to wild type cells (FIG. 17(A)). However, D-serine transport background was still observed in the ASCT2-knockout HAP1 cells. Proteome analysis of the HAP1 cells (Table 2) was used to detect expression of both SNAT1 and SNAT2. SNAT1 and SNAT2 belong to the “system A family” of sodium-dependent small amino acid transporters. We considered that SNAT may contribute to D-serine transport in HAP1 cells. In order to verify this hypothesis, the inhibiting effect of the system A inhibitor MeAIB on D-serine transport was examined.

Three molecules from patent US20230220387A1, “D-SERINE TRANSPORT MODIFIER AND SCREENING METHOD THEREOF, AND SCREENING METHOD OF D-SERINE TRANSPORTER PROTEIN” (Kagami Inc., priority 2019, published 2023) can be followed below.

“Also recorded” adds a separate entry of the source.

`N[C@H](CO)C(=O)O` [D-serine]: the “cytotoxicity compared to the Mock cells” value in series [1] and in series [6] was “higher cytotoxicity” in each case. Besides, the “D-serine toxicity with respect to cell proliferation” value in series [2] (ASCT2 knockdown cells (ASCT2-siRNA) compared with control cells, 2 days, XTT) is reported as “alleviated”. The EC50 in series [2] (Flp-In-T-REx-293, 48 h, 2 days treatment, XTT assay, read-out: EC50 for cell proliferation reduction) stood at 18.7 mM. Also, the “D-serine toxicity effect compared with Mock cells” value in [3] (15 mM D-serine, cells transfected with SMCT2, CAT1, TAT1 and SNAT2, 2 days) is reported as “increased toxicity”; in series [3] (25 mM D-serine, cells transfected with GLUT5, SMCT1, SMCT2, CAT1, THTR2 and SNAT2, 2 days) it was “significant toxicity”. Also, in [4], the “cell proliferation effect by serine treatment” value is given as “decrease in cell proliferation; also recorded: lowered proliferation more than in the Mock cells”. For the same molecule, the “cell proliferation effect by D-serine treatment” value in [5] is reported as “lowered proliferation more than in the Mock cells”.

In the case of `N[C@@H](CO)C(=O)O` [L-serine], the cell proliferation result in series [2] (Flp-In TREx 293 control cells, 2 days, XTT) is given as “no effect”. Moreover, in [7], the “Uptake of D-[3H]serine” value is recorded as “inhibited”. Moreover, the “cell proliferation effect by serine treatment” value in series [4] was “did not affect cell proliferation”. Further, the “[3H]D-serine transport” value in series [8] is on record as “notably inhibited”; in [9], “inhibited”.

Regarding `CNC(C)(C)C(=O)O` [MeAIB, α-Methylaminoisobutyric acid], the “Uptake of D-[3H]serine” value in series [7] is listed as “not inhibited”. In series [10], the D-serine transport result is “notably reduced”. The “[3H]D-serine transport” value in series [9] was “not inhibited”.
